From patent publication US20240409585A1, “MACROCYCLIC IMMUNOMODULATORS” (priority 2021, published 2024)
Bridge positions count the residues as written; N and C are the ends. Square brackets hold non-standard residues; d marks the D form. Peptide text beside a SMILES is read from it. * marks the point of attachment. ξ: configuration not given here. Phe(4-CONH2) = NC(=O)c1ccc(C[C@H](N)C(=O)O)cc1; Phe(4-COOH) = N[C@@H](Cc1ccc(C(=O)O)cc1)C(=O)O; Bip = N[C@@H](Cc1ccc(-c2ccccc2)cc1)C(=O)O; Phe(3-Me) = Cc1cccc(C[C@H](N)C(=O)O)c1; Val(3-OH) = CC(C)(O)[C@H](N)C(=O)O; 4Pal = N[C@@H](Cc1ccncc1)C(=O)O; 3Thi = N[C@@H](Cc1ccsc1)C(=O)O; Cha = N[C@@H](CC1CCCCC1)C(=O)O; Cit = NC(=O)NCCC[C@H](N)C(=O)O; Ile(3ξ) = CCC(C)[C@H](N)C(=O)O; Thr(3ξ) = CC(O)[C@H](N)C(=O)O; Pen = CC(C)(S)[C@H](N)C(=O)O; Pip = O=C(O)[C@@H]1CCCCN1; Carboxymethyl = O=C(O)C*; NMeA = CN[C@@H](C)C(=O)O; Dab = NCC[C@H](N)C(=O)O

The molecules below were run against T1, PE-labeled human PD-L1-Ig binding to Jurkat cell line over-expressing human PD-1 (Jurkat-PD-1) (Homo sapiens, UniProt Q15116) (assay: Jurkat-PD-1 Cell Binding High-Content Screening Assay (CBA): Method 1). Details: Jurkat-hPD-1 cells, PE-labeled PD-L1-Ig 20 nM final; read-out: Jurkat HPDL1 PD1 IC50 (uM) (Method 1).
T1 construct: expressed in transfected cells; host or cells: Jurkat
T1 sequence (Q15116 25-288): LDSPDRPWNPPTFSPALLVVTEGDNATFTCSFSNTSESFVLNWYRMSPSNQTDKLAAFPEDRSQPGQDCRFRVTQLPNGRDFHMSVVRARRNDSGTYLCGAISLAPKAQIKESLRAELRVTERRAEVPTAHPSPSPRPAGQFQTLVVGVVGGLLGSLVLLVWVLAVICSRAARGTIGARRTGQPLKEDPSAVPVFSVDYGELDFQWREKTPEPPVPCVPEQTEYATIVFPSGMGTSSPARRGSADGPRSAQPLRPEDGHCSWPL

Row | IC50 | Compound
1 | 0.01 µM | CCC(C)[C@@H]1NC(=O)[C@H](Cc2ccc(-c3ccccc3)cc2)NC(=O)[C@H](C(C)C)NC(=O)[C@H](Cc2cccc(C)c2)NC(=O)[C@H](CC(=O)O)NC(=O)[C@H](Cc2ccc(OCC(=O)O)cc2)NC(=O)[C@H](C(C)O)NC(=O)CSC[C@@H](C(=O)N[C@@H](CCN)C(N)=O)NC(=O)[C@H](C(C)O)NC(=O)[C@H](C(C)C)NC(=O)[C@H](CC2CCCCC2)NC(=O)[C@H](CCN)NC(=O)[C@@H](CC(C)C)NC(=O)[C@H](C)N(C)C1=O (stereo partly drawn) [Compound 2116] ({CH2CO}-[Thr(3ξ)]Y(Carboxymethyl)D[Phe(3-Me)]V[Bip][Ile(3ξ)][NMeA][dL][Dab][Cha]V[Thr(3ξ)]C[Dab]-NH2; thioether N-14)
2 | 0.02 µM | CCC(C)[C@@H]1NC(=O)[C@H](Cc2ccc(-c3ccccc3)cc2)NC(=O)[C@H](C(C)C)NC(=O)[C@H](Cc2c[nH]c3ccccc23)NC(=O)[C@H](CC(=O)O)NC(=O)[C@H](Cc2ccc(OCC(=O)O)cc2)NC(=O)[C@H](C(C)O)NC(=O)CSC[C@@H](C(=O)N[C@H](CC(N)=O)C(N)=O)NC(=O)[C@H](CO)NC(=O)[C@H](C(C)C)NC(=O)[C@H](CC2CCCCC2)NC(=O)[C@H](CCN)NC(=O)[C@@H](CC(C)C)NC(=O)[C@H](C)N(C)C1=O (stereo partly drawn) [Compound 2117] ({CH2CO}-[Thr(3ξ)]Y(Carboxymethyl)DWV[Bip][Ile(3ξ)][NMeA][dL][Dab][Cha]VSC[dN]-NH2; thioether N-14)
3 | 0.05 µM | CC(=O)NCCCC[C@@H]1NC(=O)[C@H](Cc2ccc(-c3ccccc3)cc2)NC(=O)[C@H](Cc2ccc(O)cc2)NC(=O)[C@H](Cc2cccc(C)c2)NC(=O)[C@H](CC(=O)O)NC(=O)[C@H](Cc2ccc(OCC(=O)O)cc2)NC(=O)[C@H](C(C)O)NC(=O)CSC[C@@H](C(=O)N[C@H](CC(N)=O)C(N)=O)NC(=O)[C@H](C(C)O)NC(=O)[C@H](C(C)C)NC(=O)[C@H](CC2CCCCC2)NC(=O)[C@H](CCN)NC(=O)[C@@H](CC(C)C)NC(=O)[C@H](C)N(C)C1=O (stereo partly drawn) [Compound 2118] ({CH2CO}-[Thr(3ξ)]Y(Carboxymethyl)D[Phe(3-Me)]Y[Bip]K(Ac)[NMeA][dL][Dab][Cha]V[Thr(3ξ)]C[dN]-NH2; thioether N-14)
4 | 0.02 µM | CC(=O)NCCCC[C@@H]1NC(=O)[C@H](Cc2ccc(-c3ccccc3)cc2)NC(=O)[C@H](Cc2ccc(O)cc2)NC(=O)[C@H](Cc2cccc(C)c2)NC(=O)[C@H](CC(=O)O)NC(=O)[C@H](Cc2ccc(OCC(=O)O)cc2)NC(=O)[C@H](C(C)O)NC(=O)CSC[C@@H](C(=O)N[C@@H](CO)C(N)=O)NC(=O)[C@H](C(C)O)NC(=O)[C@H](C(C)C)NC(=O)[C@H](CC2CCCCC2)NC(=O)[C@H](CCN)NC(=O)[C@@H](CC(C)C)NC(=O)[C@H](C)N(C)C1=O (stereo partly drawn) [Compound 2119] ({CH2CO}-[Thr(3ξ)]Y(Carboxymethyl)D[Phe(3-Me)]Y[Bip]K(Ac)[NMeA][dL][Dab][Cha]V[Thr(3ξ)]CS-NH2; thioether N-14)
5 | 0.04 µM | CCC(C)[C@@H]1NC(=O)[C@H](Cc2ccc(-c3ccccc3)cc2)NC(=O)[C@H](Cc2ccc(O)cc2)NC(=O)[C@H](Cc2cccc(C)c2)NC(=O)[C@H](CC(=O)O)NC(=O)[C@H](Cc2ccc(OCC(=O)O)cc2)NC(=O)[C@H](C(C)O)NC(=O)CSC[C@@H](C(=O)N[C@@H](CO)C(N)=O)NC(=O)[C@H](C(C)O)NC(=O)[C@H](C(C)C)NC(=O)[C@H](CC2CCCCC2)NC(=O)[C@H](CCN)NC(=O)[C@@H](CC(C)C)NC(=O)[C@H](C)N(C)C1=O (stereo partly drawn) [Compound 2121] ({CH2CO}-[Thr(3ξ)]Y(Carboxymethyl)D[Phe(3-Me)]Y[Bip][Ile(3ξ)][NMeA][dL][Dab][Cha]V[Thr(3ξ)]CS-NH2; thioether N-14)
6 | 0.02 µM | CC(C)C[C@@H]1NC(=O)[C@H](Cc2c[nH]c3ccccc23)NC(=O)[C@H](CC(=O)O)NC(=O)[C@H](Cc2ccc(OCC(=O)O)cc2)NC(=O)[C@H](Cc2ccc(OCC(=O)O)cc2)NC(=O)CSC[C@@H](C(=O)N[C@@H](C)C(N)=O)NC(=O)[C@H](CO)NC(=O)[C@H](C(C)C)NC(=O)[C@H](CC(C)C)NC(=O)[C@H](CCN)NC(=O)[C@@H](CC(C)C)NC(=O)[C@H](C)N(C)C(=O)[C@H](C(C)C)NC(=O)[C@H](Cc2ccc(-c3ccccc3)cc2)NC1=O [Compound 2123] ({CH2CO}-Y(Carboxymethyl)Y(Carboxymethyl)DWL[Bip]V[NMeA][dL][Dab]LVSCA-NH2; thioether N-14)
7 | 0.04 µM | CC(=O)NCCCC[C@@H]1NC(=O)[C@H](C(C)C)NC(=O)[C@H](CC2CCCCC2)NC(=O)[C@H](CCC(=O)O)NC(=O)[C@@H](CC(C)C)NC(=O)[C@H](C)N(C)C(=O)[C@H](Cc2cnc[nH]2)NC(=O)[C@H](Cc2ccc(-c3ccccc3)cc2)NC(=O)[C@H](CC(C)C)NC(=O)[C@H](Cc2cccc(C)c2)NC(=O)[C@H](CC(=O)O)NC(=O)[C@H](Cc2ccc(OCC(=O)O)cc2)NC(=O)[C@H](Cc2ccc(OCC(=O)O)cc2)NC(=O)CSC[C@@H](C(=O)N[C@H](C)C(N)=O)NC1=O [Compound 2124] ({CH2CO}-Y(Carboxymethyl)Y(Carboxymethyl)D[Phe(3-Me)]L[Bip]H[NMeA][dL]E[Cha]VK(Ac)C[dA]-NH2; thioether N-14)
8 | 0.04 µM | CC(C)C[C@H]1NC(=O)[C@@H]2CCCCN2C(=O)[C@H](Cc2c[nH]cn2)NC(=O)[C@H](Cc2ccc(-c3ccccc3)cc2)NC(=O)[C@H](C(C)C)NC(=O)[C@H](Cc2c[nH]c3ccccc23)NC(=O)[C@H](CC(=O)O)NC(=O)[C@H](Cc2ccc(C(=O)O)cc2)NC(=O)[C@H](Cc2ccncc2)NC(=O)CSC[C@@H](C(=O)N[C@H](C)C(N)=O)NC(=O)[C@H](CO)NC(=O)[C@H](C(C)C)NC(=O)[C@H](CC2CCCCC2)NC(=O)[C@H](CCN)NC1=O [Compound 2125] ({CH2CO}-[4Pal][Phe(4-COOH)]DWV[Bip]H[Pip][dL][Dab][Cha]VSC[dA]-NH2; thioether N-14)
9 | 0.66 µM | Cc1cccc(C[C@@H]2NC(=O)[C@H](CC(=O)O)NC(=O)[C@H](Cc3ccc(OCC(=O)O)cc3)NC(=O)[C@H](Cc3ccc(OCC(=O)O)cc3)NC(=O)CSC(C)(C)[C@@H](C(=O)N[C@H](C)C(N)=O)NC(=O)[C@H](CCCNC(N)=O)NC(=O)[C@H](C(C)C)NC(=O)[C@H](CC3CCCCC3)NC(=O)[C@H](CCN)NC(=O)[C@@H](CC(C)C)NC(=O)[C@H](C)N(C)C(=O)[C@H](Cc3cnc[nH]3)NC(=O)[C@H](Cc3ccc(-c4ccccc4)cc3)NC(=O)[C@H](Cc3ccc(C(N)=O)cc3)NC2=O)c1 [Compound 2126] ({CH2CO}-Y(Carboxymethyl)Y(Carboxymethyl)D[Phe(3-Me)][Phe(4-CONH2)][Bip]H[NMeA][dL][Dab][Cha]V[Cit][Pen][dA]-NH2; thioether N-14)
10 | 0.01 µM | CC(=O)NCCCC[C@@H]1NC(=O)[C@H](C(C)C)NC(=O)[C@H](CC2CCCCC2)NC(=O)[C@H](CCN)NC(=O)[C@@H](CC(C)C)NC(=O)[C@H](C)N(C)C(=O)[C@H](CCC(N)=O)NC(=O)[C@H](Cc2ccc(-c3ccccc3)cc2)NC(=O)[C@H](C(C)C)NC(=O)[C@H](Cc2c[nH]c3ccccc23)NC(=O)[C@H](CC(=O)O)NC(=O)[C@H](Cc2ccc(OCC(=O)O)cc2)NC(=O)[C@H](Cc2ccsc2)NC(=O)CSC[C@@H](C(=O)N[C@@H](CCN)C(N)=O)NC1=O [Compound 2127] ({CH2CO}-[3Thi]Y(Carboxymethyl)DWV[Bip]Q[NMeA][dL][Dab][Cha]VK(Ac)C[Dab]-NH2; thioether N-14)
11 | 0.01 µM | Cc1cccc(C[C@@H]2NC(=O)[C@H](CC(=O)O)NC(=O)[C@H](Cc3ccc(OCC(=O)O)cc3)NC(=O)[C@H](Cc3ccsc3)NC(=O)CSC[C@@H](C(=O)N[C@@H](CCN)C(N)=O)NC(=O)[C@H](C(C)O)NC(=O)[C@H](C(C)C)NC(=O)[C@H](CC3CCCCC3)NC(=O)[C@H](CCN)NC(=O)[C@@H](CC(C)C)NC(=O)[C@H](C)N(C)C(=O)[C@H](Cc3ccc(OCC(=O)O)cc3)NC(=O)[C@H](Cc3ccc(-c4ccccc4)cc3)NC(=O)[C@H](Cc3ccc(C(=O)O)cc3)NC2=O)c1 (stereo partly drawn) [Compound 2128] ({CH2CO}-[3Thi]Y(Carboxymethyl)D[Phe(3-Me)][Phe(4-COOH)][Bip]Y(Carboxymethyl)[NMeA][dL][Dab][Cha]V[Thr(3ξ)]C[Dab]-NH2; thioether N-14)
12 | 0.01 µM | CC(=O)NCCCC[C@@H]1NC(=O)[C@H](C(C)C)NC(=O)[C@H](CC2CCCCC2)NC(=O)[C@H](CCN)NC(=O)[C@@H](CC(C)C)NC(=O)[C@H](C)N(C)C(=O)[C@H](CCC(N)=O)NC(=O)[C@H](Cc2ccc(-c3ccccc3)cc2)NC(=O)[C@H](C(C)C)NC(=O)[C@H](Cc2cccc(C)c2)NC(=O)[C@H](CC(=O)O)NC(=O)[C@H](Cc2ccc(OCC(=O)O)cc2)NC(=O)[C@H](Cc2ccc(OCC(=O)O)cc2)NC(=O)CSC[C@@H](C(=O)N[C@@H](CCN)C(N)=O)NC1=O [Compound 2129] ({CH2CO}-Y(Carboxymethyl)Y(Carboxymethyl)D[Phe(3-Me)]V[Bip]Q[NMeA][dL][Dab][Cha]VK(Ac)C[Dab]-NH2; thioether N-14)
13 | 0.03 µM | CC(C)C[C@H]1NC(=O)[C@H](C)N(C)C(=O)[C@H](Cc2ccc(OCC(=O)O)cc2)NC(=O)[C@H](Cc2ccc(-c3ccccc3)cc2)NC(=O)[C@H](Cc2ccc(C(=O)O)cc2)NC(=O)[C@H](Cc2c[nH]c3ccccc23)NC(=O)[C@H](CC(=O)O)NC(=O)[C@H](Cc2ccc(OCC(=O)O)cc2)NC(=O)[C@H](Cc2ccsc2)NC(=O)CSC[C@@H](C(=O)N[C@@H](CCN)C(N)=O)NC(=O)[C@H](CO)NC(=O)[C@H](C(C)(C)O)NC(=O)[C@H](CC2CCCCC2)NC(=O)[C@H](CCN)NC1=O [Compound 2130] ({CH2CO}-[3Thi]Y(Carboxymethyl)DW[Phe(4-COOH)][Bip]Y(Carboxymethyl)[NMeA][dL][Dab][Cha][Val(3-OH)]SC[Dab]-NH2; thioether N-14)
14 | 0.07 µM | CC(C)C[C@H]1NC(=O)[C@H](C)N(C)C(=O)[C@H](Cc2ccc(OCC(=O)O)cc2)NC(=O)[C@H](Cc2ccc(-c3ccccc3)cc2)NC(=O)[C@H](Cc2ccc(C(=O)O)cc2)NC(=O)[C@H](Cc2c[nH]c3ccccc23)NC(=O)[C@H](CC(=O)O)NC(=O)[C@H](Cc2ccc(OCC(=O)O)cc2)NC(=O)[C@H](Cc2ccsc2)NC(=O)CSC[C@@H](C(=O)N[C@@H](CCN)C(N)=O)NC(=O)[C@H](CO)NC(=O)[C@H](C(C)(C)O)NC(=O)[C@H](CC2CCCCC2)NC(=O)[C@H](CC(N)=O)NC1=O [Compound 2131] ({CH2CO}-[3Thi]Y(Carboxymethyl)DW[Phe(4-COOH)][Bip]Y(Carboxymethyl)[NMeA][dL]N[Cha][Val(3-OH)]SC[Dab]-NH2; thioether N-14)
